How the values were obtained:
AVEFA = experiment: Pre-emergence herbicidal action against AVEFA; type: in vivo, Avena fatua; conditions: Avena fatua, 504 h; 80 g/ha, pre-emergence
Outline: (§1)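 Herbicidal effect was assessed 3 weeks after treatment by visual comparison with untreated controls, 100% denoting dead plants. Aqueous WP or EC preparations had been applied at 600 to 800 l/ha with 0.2% wetting agent to the soil covering freshly sown seeds.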

ALOMY [1] = experiment: Pre-emergence herbicidal action against ALOMY; type: in vivo, Alopecurus myosuroides; conditions: Alopecurus myosuroides, 504 h, pre-emergence; for pest or weed control at 80 g/ha: scored visually after 3 weeks vs untreated controls (100% = plants have died, 0% = like control plants); for pest or weed control at 20 g/ha: scored visually after 3 weeks, 100% = plants have died, 0% = like control plants
Outline: as §1

DIGSA [2] = experiment: Post-emergence herbicidal action against DIGSA; type: in vivo, Digitaria sanguinalis; conditions: Digitaria sanguinalis, 504 h
Outline: (§2)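 Herbicidal effect was scored visually in percent after about 3 weeks in the greenhouse. Plants had been raised in sandy loam and treated post-emergence at the one-leaf stage with formulated compound at 600 to 800 l/ha water plus 0.2% wetting agent.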

SETVI [3] = experiment: Pre-emergence herbicidal action against SETVI; type: in vivo, Setaria viridis; conditions: Setaria viridis, 504 h; for pest or weed control at 20 g/ha: dosage 20 g/ha; for pest or weed control at 80 g/ha: dosage 80 g/ha
Outline: as §1

VERPE [4] = experiment: Pre-emergence herbicidal action against VERPE; type: in vivo, Veronica persica; conditions: Veronica persica, 504 h, dosage 80 g/ha
Outline: as §1

LOLRI = experiment: Pre-emergence herbicidal action against LOLRI; type: in vivo, Lolium rigidum; conditions: Lolium rigidum, 504 h, 80 g/ha
Outline: as §1

AMARE [5] = experiment: Post-emergence herbicidal action against AMARE; type: in vivo, Amaranthus retroflexus; conditions: Amaranthus retroflexus, 504 h, 20 g/ha, visual assessment about 3 weeks after treatment, 100% = plants have died, 0% = like control plants
Outline: as §2

ECHCG [6] = experiment: Pre-emergence herbicidal action against ECHCG; type: in vivo, Echinochloa crus-galli; conditions: Echinochloa crus-galli, 504 h, 80 g/ha
Outline: as §1

VIOTR [7] = experiment: Pre-emergence herbicidal action against VIOTR; type: in vivo, Viola tricolor; conditions: Viola tricolor, 504 h; for pest or weed control at 20 g/ha: dosage 20 g/ha; for pest or weed control at 80 g/ha: dosage 80 g/ha
Outline: as §1

VERPE [8] = experiment: Post-emergence herbicidal action against VERPE; type: in vivo, Veronica persica; conditions: Veronica persica, 504 h, 20 g/ha
Outline: as §2

PHBPU [9] = experiment: Post-emergence herbicidal action against PHBPU; type: in vivo, Pharbitis purpurea; conditions: Ipomoea purpurea, 504 h
Outline: as §2

PHBPU [10] = experiment: Pre-emergence herbicidal action against PHBPU; type: in vivo, Pharbitis purpurea; conditions: Ipomoea purpurea, 504 h, dosage 80 g/ha
Outline: as §1

ABUTH [11] = experiment: Post-emergence herbicidal action against ABUTH; type: in vivo, Abutilon theophrasti; conditions: Abutilon theophrasti, 504 h, visual assessment about 3 weeks after treatment vs untreated controls; for pest or weed control at 5 g/ha: dosage 5 g/ha; for pest or weed control at 20 g/ha: dosage 20 g/ha
Outline: as §2

SETVI [12] = experiment: Post-emergence herbicidal action against SETVI; type: in vivo, Setaria viridis; conditions: Setaria viridis, 504 h; for pest or weed control at 5 g/ha: dosage 5 g/ha; for pest or weed control at 20 g/ha: dosage 20 g/ha
Outline: as §2

AMARE [13] = experiment: Pre-emergence herbicidal action against AMARE; type: in vivo, Amaranthus retroflexus; conditions: Amaranthus retroflexus, 504 h, scored visually after 3 weeks vs untreated controls, 100% = plants have died, 0% = like control plants
Outline: as §1

DIGSA [14] = experiment: Pre-emergence herbicidal action against DIGSA; type: in vivo, Digitaria sanguinalis; conditions: Digitaria sanguinalis, 504 h; for pest or weed control at 20 g/ha: dosage 20 g/ha; for pest or weed control at 80 g/ha: dosage 80 g/ha
Outline: as §1

MATIN [15] = experiment: Pre-emergence herbicidal action against MATIN; type: in vivo, Matricaria inodora; conditions: Tripleurospermum inodorum, 504 h; for pest or weed control at 80 g/ha: dosage 80 g/ha; for pest or weed control at 20 g/ha: dosage 20 g/ha
Outline: as §1

ABUTH [16] = experiment: Pre-emergence herbicidal action against ABUTH; type: in vivo, Abutilon theophrasti; conditions: Abutilon theophrasti, 504 h; for pest or weed control at 80 g/ha: scored visually after 3 weeks vs untreated controls (100% = plants have died, 0% = like control plants); for pest or weed control at 20 g/ha: dosage 20 g/ha, scored visually after 3 weeks vs untreated controls, 100% = plants have died, 0% = like control plants, read-out: Pre-emergence action against ABUTH (herbicidal activity in percent)
Outline: as §1

ALOMY [17] = experiment: Post-emergence herbicidal action against ALOMY; type: in vivo, Alopecurus myosuroides; conditions: Alopecurus myosuroides, 504 h, visual assessment about 3 weeks after treatment vs untreated controls; for pest or weed control at 20 g/ha: dosage 20 g/ha
Outline: as §2

ECHCG [18] = experiment: Post-emergence herbicidal action against ECHCG; type: in vivo, Echinochloa crus-galli; conditions: Echinochloa crus-galli, 504 h; for pest or weed control at 5 g/ha: dosage 5 g/ha; for pest or weed control at 20 g/ha: dosage 20 g/ha
Outline: as §2

MATIN [19] = experiment: Post-emergence herbicidal action against MATIN; type: in vivo, Matricaria inodora; conditions: Tripleurospermum inodorum, 504 h
Outline: as §2

VIOTR [20] = experiment: Post-emergence herbicidal action against VIOTR; type: in vivo, Viola tricolor; conditions: Viola tricolor, 504 h
Outline: as §2

Cc1nnc(NC(=O)c2ccc(C(F)(F)F)c(C(=O)NC(C)C)c2C)o1 [Example 6-255]
80%: pest or weed control at 80 g/ha (AVEFA) | pest or weed control at 80 g/ha (LOLRI) | pest or weed control at 20 g/ha (VIOTR [7]) | pest or weed control at 20 g/ha (VERPE [8]) | pest or weed control at 5 g/ha (SETVI [12])
100%: pest or weed control at 80 g/ha (ALOMY [1]) | pest or weed control at 20 g/ha (DIGSA [2]; 20 g/ha) | pest or weed control at 20 g/ha (SETVI [3]) | pest or weed control at 80 g/ha (SETVI [3]) | pest or weed control at 20 g/ha (AMARE [5]) | pest or weed control at 80 g/ha (ECHCG [6]) | pest or weed control at 20 g/ha (AMARE [13]) | pest or weed control at 80 g/ha (AMARE [13]) | pest or weed control at 20 g/ha (DIGSA [14]) | pest or weed control at 80 g/ha (DIGSA [14]) | pest or weed control at 80 g/ha (MATIN [15]) | pest or weed control at 80 g/ha (ABUTH [16]) | pest or weed control at 20 g/ha (ABUTH [16]) | pest or weed control at 20 g/ha (ECHCG [18])
90%: pest or weed control at 20 g/ha (ALOMY [1]) | pest or weed control at 5 g/ha (DIGSA [2]; 5 g/ha) | pest or weed control at 80 g/ha (VERPE [4]) | pest or weed control at 80 g/ha (VIOTR [7]) | pest or weed control at 5 g/ha (PHBPU [9]; dosage 5 g/ha) | pest or weed control at 20 g/ha (PHBPU [9]; dosage 20 g/ha) | pest or weed control at 80 g/ha (PHBPU [10]) | pest or weed control at 5 g/ha (ABUTH [11]) | pest or weed control at 20 g/ha (ABUTH [11]) | pest or weed control at 20 g/ha (SETVI [12]) | pest or weed control at 20 g/ha (ALOMY [17]) | pest or weed control at 5 g/ha (ECHCG [18])

CCn1nnnc1NC(=O)c1ccc(Br)c(C(=O)NC)c1Cl [Example 2-177]
90%: pest or weed control at 80 g/ha (AVEFA) | pest or weed control at 20 g/ha (ALOMY [1]) | pest or weed control at 80 g/ha (LOLRI) | pest or weed control at 5 g/ha (MATIN [19]; dosage 5 g/ha) | pest or weed control at 20 g/ha (MATIN [19]; dosage 20 g/ha) | pest or weed control at 80 g/ha (ECHCG [6]) | pest or weed control at 20 g/ha (ABUTH [11]) | pest or weed control at 5 g/ha (SETVI [12]) | pest or weed control at 20 g/ha (SETVI [12]) | pest or weed control at 20 g/ha (MATIN [15]) | pest or weed control at 20 g/ha (ABUTH [16])
100%: pest or weed control at 80 g/ha (ALOMY [1]) | pest or weed control at 20 g/ha (SETVI [3]) | pest or weed control at 80 g/ha (SETVI [3]) | pest or weed control at 20 g/ha (AMARE [5]) | pest or weed control at 20 g/ha (VIOTR [7]) | pest or weed control at 80 g/ha (VIOTR [7]) | pest or weed control at 20 g/ha (VIOTR [20]) | pest or weed control at 20 g/ha (AMARE [13]) | pest or weed control at 80 g/ha (AMARE [13]) | pest or weed control at 20 g/ha (DIGSA [14]) | pest or weed control at 80 g/ha (DIGSA [14]) | pest or weed control at 80 g/ha (MATIN [15]) | pest or weed control at 80 g/ha (ABUTH [16]) | pest or weed control at 20 g/ha (ALOMY [17])
80%: pest or weed control at 80 g/ha (VERPE [4]) | pest or weed control at 20 g/ha (VERPE [8]) | pest or weed control at 5 g/ha (VIOTR [20]; 5 g/ha) | pest or weed control at 80 g/ha (PHBPU [10]) | pest or weed control at 5 g/ha (ABUTH [11]) | pest or weed control at 5 g/ha (ALOMY [17]; dosage 5 g/ha)

CC(C)NC(=O)c1c(Br)ccc(C(=O)Nc2nnnn2C)c1Cl [Example 1-185]
80%: pest or weed control at 20 g/ha (VIOTR [7]) | pest or weed control at 20 g/ha (VERPE [8]) | pest or weed control at 20 g/ha (VIOTR [20]) | pest or weed control at 80 g/ha (PHBPU [10]) | pest or weed control at 5 g/ha (ABUTH [11]) | pest or weed control at 5 g/ha (SETVI [12])
100%: pest or weed control at 80 g/ha (AVEFA) | pest or weed control at 80 g/ha (ALOMY [1]) | pest or weed control at 80 g/ha (SETVI [3]) | pest or weed control at 20 g/ha (AMARE [5]) | pest or weed control at 80 g/ha (ECHCG [6]) | pest or weed control at 80 g/ha (VIOTR [7]) | pest or weed control at 20 g/ha (SETVI [12]) | pest or weed control at 20 g/ha (AMARE [13]) | pest or weed control at 80 g/ha (AMARE [13]) | pest or weed control at 20 g/ha (MATIN [15]) | pest or weed control at 80 g/ha (MATIN [15]) | pest or weed control at 80 g/ha (ABUTH [16]) | pest or weed control at 20 g/ha (ABUTH [16]) | pest or weed control at 20 g/ha (ECHCG [18])
90%: pest or weed control at 20 g/ha (ALOMY [1]) | pest or weed control at 80 g/ha (LOLRI) | pest or weed control at 20 g/ha (ABUTH [11]) | pest or weed control at 20 g/ha (ALOMY [17]) | pest or weed control at 5 g/ha (ECHCG [18])
